{"source": "ChEMBL document CHEMBL1125487", "about": "“Acetazolamide-like carbonic anhydrase inhibitors with topical ocular hypotensive activity” (J Med Chem, 1992)", "key": {"Oryctolagus cuniculus [1]": {"test_system": "Oryctolagus cuniculus", "test": "Effect on intraocular pressure in right eye was tested by using transition ocular hypertension model at 0 min (after 4 hr administration)", "type": "functional"}, "Oryctolagus cuniculus [2]": {"test_system": "Oryctolagus cuniculus", "test": "Effect on intraocular pressure in right eye was tested by using transition ocular hypertension model at 10 min. (after 4 hr administration)", "type": "functional"}, "Oryctolagus cuniculus [3]": {"test_system": "Oryctolagus cuniculus", "test": "Effect on intraocular pressure in left eye was tested by using transition ocular hypertension model at 10 min. (after 8 hr administration)", "type": "functional"}, "Oryctolagus cuniculus [4]": {"test_system": "Oryctolagus cuniculus", "test": "Effect on intraocular pressure in right eye was tested by using transition ocular hypertension model at 40 min. (after 4 hr administration)", "type": "functional"}, "Oryctolagus cuniculus [5]": {"organism": "Oryctolagus cuniculus", "test": "Effect on intraocular pressure in right eye was tested by using transition ocular hypertension model at 10 min.", "type": "functional"}, "Oryctolagus cuniculus [6]": {"organism": "Oryctolagus cuniculus", "test": "Effect on intraocular pressure in left eye was tested by using transition ocular hypertension model at 40 min; note: test concentration or dose not given here.", "type": "functional"}, "Oryctolagus cuniculus [7]": {"organism": "Oryctolagus cuniculus", "test": "Effect on intraocular pressure in left eye was tested by using transition ocular hypertension model at 0 min; note: test concentration or dose not given here.", "type": "functional"}, "Oryctolagus cuniculus [8]": {"organism": "Oryctolagus cuniculus", "test": "Effect on intraocular pressure in right eye was tested by using transition ocular hypertension model at basal condition; note: test concentration or dose not given here", "type": "functional"}, "Oryctolagus cuniculus [9]": {"test_system": "Oryctolagus cuniculus", "test": "Effect on intraocular pressure in left eye was tested by using transition ocular hypertension model at 0 min. (after 8 hr administration)", "type": "functional"}, "Oryctolagus cuniculus [10]": {"test_system": "Oryctolagus cuniculus", "test": "Effect on intraocular pressure in right eye was tested by using transition ocular hypertension model at 0 min (after 8 hr administration)", "type": "functional"}, "Oryctolagus cuniculus [11]": {"test_system": "Oryctolagus cuniculus", "test": "Effect on intraocular pressure in left eye was tested by using transition ocular hypertension model at 40 min. (after 8 hr administration)", "type": "functional"}, "Oryctolagus cuniculus [12]": {"test_system": "Oryctolagus cuniculus", "test": "Effect on intraocular pressure in left eye was tested by using transition ocular hypertension model at 40 min. (after 4 hr administration)", "type": "functional"}, "Oryctolagus cuniculus [13]": {"test_system": "Oryctolagus cuniculus", "test": "Effect on intraocular pressure in left eye was tested by using transition ocular hypertension model at 20 min. (after 4 hr administration)", "type": "functional"}, "physchem": {"test": "physchem", "conditions": "phosphate buffer", "description": "Solubility (in phosphate buffer)"}, "Oryctolagus cuniculus [14]": {"test_system": "Oryctolagus cuniculus", "test": "Effect on intraocular pressure in right eye was tested by using transition ocular hypertension model at basal condition (after 4 hr administration)", "type": "functional"}, "Oryctolagus cuniculus [15]": {"organism": "Oryctolagus cuniculus", "test": "Effect on intraocular pressure in right eye was tested by using transition ocular hypertension model at 0 min; note: test concentration or dose not given here.", "type": "functional"}, "Oryctolagus cuniculus [16]": {"test_system": "Oryctolagus cuniculus", "test": "Effect on intraocular pressure in left eye was tested by using transition ocular hypertension model at basal condition (after 8 hr administration)", "type": "functional"}, "Oryctolagus cuniculus [17]": {"organism": "Oryctolagus cuniculus", "test": "Effect on intraocular pressure in left eye was tested by using transition ocular hypertension model at 10 min; note: test concentration or dose not given here.", "type": "functional"}, "Oryctolagus cuniculus [18]": {"organism": "Oryctolagus cuniculus", "test": "Effect on intraocular pressure in right eye was tested by using transition ocular hypertension model at 40 min; note: test concentration or dose not given here.", "type": "functional"}, "Oryctolagus cuniculus [19]": {"test_system": "Oryctolagus cuniculus", "test": "Effect on intraocular pressure in right eye was tested by using transition ocular hypertension model at 40 min. (after 8 hr administration)", "type": "functional"}, "Oryctolagus cuniculus [20]": {"test_system": "Oryctolagus cuniculus", "test": "Effect on intraocular pressure in right eye was tested by using transition ocular hypertension model at 10 min. (after 8 hr administration)", "type": "functional"}, "Oryctolagus cuniculus [21]": {"test_system": "Oryctolagus cuniculus", "test": "Effect on intraocular pressure in left eye was tested by using transition ocular hypertension model at 20 min. (after 8 hr administration)", "type": "functional"}, "Oryctolagus cuniculus [22]": {"test_system": "Oryctolagus cuniculus", "test": "Effect on intraocular pressure in left eye was tested by using transition ocular hypertension model at basal condition (after 4 hr administration)", "type": "functional"}, "Oryctolagus cuniculus [23]": {"organism": "Oryctolagus cuniculus", "test": "Effect on intraocular pressure in left eye was tested by using transition ocular hypertension model at 20 min; note: test concentration or dose not given here.", "type": "functional"}, "Oryctolagus cuniculus [24]": {"test_system": "Oryctolagus cuniculus", "test": "Effect on intraocular pressure in right eye was tested by using transition ocular hypertension model at 20 min. (after 4 hr administration)", "type": "functional"}, "Oryctolagus cuniculus [25]": {"test_system": "Oryctolagus cuniculus", "test": "Effect on intraocular pressure in right eye was tested by using transition ocular hypertension model at basal condition (after 8 hr administration)", "type": "functional"}, "Oryctolagus cuniculus [26]": {"test_system": "Oryctolagus cuniculus", "test": "Effect on intraocular pressure in left eye was tested by using transition ocular hypertension model at 10 min. (after 4 hr administration)", "type": "functional"}, "Oryctolagus cuniculus [27]": {"test_system": "Oryctolagus cuniculus", "test": "Effect on intraocular pressure in left eye was tested by using transition ocular hypertension model at 0 min. (after 4 hr administration)", "type": "functional"}, "Oryctolagus cuniculus [28]": {"organism": "Oryctolagus cuniculus", "test": "Effect on intraocular pressure in right eye was tested by using transition ocular hypertension model at 20 min; note: test concentration or dose not given here.", "type": "functional"}, "Oryctolagus cuniculus [29]": {"test_system": "Oryctolagus cuniculus", "test": "Effect on intraocular pressure in right eye was tested by using transition ocular hypertension model at 20 min. (after 8 hr administration)", "type": "functional"}, "Oryctolagus cuniculus [30]": {"organism": "Oryctolagus cuniculus", "test": "Effect on intraocular pressure in left eye was tested by using transition ocular hypertension model at basal condition", "type": "functional"}}}
{"smiles": "NS(=O)(=O)c1nnc(NC(=O)CCC(=O)O)s1", "values": [{"measurement": "IOP", "setting": "Oryctolagus cuniculus [1]", "value": 13.33, "unit": "mmHg"}, {"measurement": "IOP", "setting": "Oryctolagus cuniculus [2]", "value": 18.5, "unit": "mmHg"}, {"measurement": "IOP", "setting": "Oryctolagus cuniculus [3]", "value": 26.17, "unit": "mmHg"}, {"measurement": "IOP", "setting": "Oryctolagus cuniculus [4]", "value": 16.33, "unit": "mmHg"}, {"measurement": "IOP", "setting": "Oryctolagus cuniculus [5]", "value": 19.33, "unit": "mmHg"}, {"measurement": "IOP", "setting": "Oryctolagus cuniculus [6]", "value": 19, "unit": "mmHg"}, {"measurement": "IOP", "setting": "Oryctolagus cuniculus [7]", "value": 15.5, "unit": "mmHg"}, {"measurement": "IOP", "setting": "Oryctolagus cuniculus [8]", "value": 15.67, "unit": "mmHg"}, {"measurement": "IOP", "setting": "Oryctolagus cuniculus [9]", "value": 15.67, "unit": "mmHg"}, {"measurement": "IOP", "setting": "Oryctolagus cuniculus [10]", "value": 14.83, "unit": "mmHg"}, {"measurement": "IOP", "setting": "Oryctolagus cuniculus [11]", "value": 18.67, "unit": "mmHg"}, {"measurement": "IOP", "setting": "Oryctolagus cuniculus [12]", "value": 18.83, "unit": "mmHg"}, {"measurement": "IOP", "setting": "Oryctolagus cuniculus [13]", "value": 22, "unit": "mmHg"}, {"measurement": "solubility", "setting": "physchem", "value": 60.7, "unit": "mM"}, {"measurement": "IOP", "setting": "Oryctolagus cuniculus [14]", "value": 15.5, "unit": "mmHg"}, {"measurement": "IOP", "setting": "Oryctolagus cuniculus [15]", "value": 14.33, "unit": "mmHg"}, {"measurement": "IOP", "setting": "Oryctolagus cuniculus [16]", "value": 15.67, "unit": "mmHg"}, {"measurement": "IOP", "setting": "Oryctolagus cuniculus [17]", "value": 26, "unit": "mmHg"}, {"measurement": "IOP", "setting": "Oryctolagus cuniculus [18]", "value": 15.67, "unit": "mmHg"}, {"measurement": "IOP", "setting": "Oryctolagus cuniculus [19]", "value": 16.5, "unit": "mmHg"}, {"measurement": "IOP", "setting": "Oryctolagus cuniculus [20]", "value": 22.23, "unit": "mmHg"}, {"measurement": "IOP", "setting": "Oryctolagus cuniculus [21]", "value": 21.5, "unit": "mmHg"}, {"measurement": "IOP", "setting": "Oryctolagus cuniculus [22]", "value": 15.5, "unit": "mmHg"}, {"measurement": "IOP", "setting": "Oryctolagus cuniculus [23]", "value": 21.67, "unit": "mmHg"}, {"measurement": "IOP", "setting": "Oryctolagus cuniculus [24]", "value": 18.33, "unit": "mmHg"}, {"measurement": "IOP", "setting": "Oryctolagus cuniculus [25]", "value": 15.67, "unit": "mmHg"}, {"measurement": "IOP", "setting": "Oryctolagus cuniculus [26]", "value": 25.83, "unit": "mmHg"}, {"measurement": "IOP", "setting": "Oryctolagus cuniculus [27]", "value": 15.33, "unit": "mmHg"}, {"measurement": "IOP", "setting": "Oryctolagus cuniculus [28]", "value": 17.17, "unit": "mmHg"}, {"measurement": "IOP", "setting": "Oryctolagus cuniculus [29]", "value": 18.67, "unit": "mmHg"}, {"measurement": "IOP", "setting": "Oryctolagus cuniculus [30]", "value": 15.5, "unit": "mmHg"}]}
